Experimental data: patent publication US20230043863A1, “HETEROAROMATIC DERIVATIVES FOR USE AS REGULATOR, PREPARATION METHOD THEREFOR AND USE THEREOF” (JIANGSU HANSOH PHARMACEUTICAL GROUP CO., LTD., priority 2018, published 2023)

Legend:
JAK1 = JAK1 (Homo sapiens, UniProt P23458); assay: JAK kinase activity inhibition, TR-FRET (JAK1); type: biochemical; conditions: TR-FRET kinase assay
Protocol: (§1) Experimental objective: The objective of this test is to test the inhibitory effect of the compound on JAK kinase activity.
(§2) Experimental method: the fluorescence resonance energy transfer (TR-FRET) method was used to test the inhibitory effect of the compound on JAK kinase activity, and the half inhibitory concentration IC50 of the compound on JAK kinase activity was obtained.
(§3) Kinase reaction was carried out in a white 384-well plate (PerkinElmer). 1-5 μL of different concentrations of the compound diluted with DMSO and ddH2O was added into each well, and 1-5 μL of the corresponding solvent was added to the positive control wells, followed by addition of 0.1-20 nM JAK kinase solution diluted with 1-5 μL of kinase buffer (HEPES 50-250 mM, MgCl2 5-20 mM, etc.) was added to each well. 1-5 μL of kinase buffer was added to the negative control well. 1-5 μL of substrate mixture containing peptide substrate and ATP was added. The plate was incubated at room temperature for 0.5-5 hours. […], EDTA and detection solution containing labeled antibody was added, and then the plate was incubated at room temperature for another 1-24 hours. The fluorescence signal value at about 620 nm and 665 nm of each well was measured by BioTek Synergy H1 plate reader, and the inhibition rate was calculated by the fluorescence signal value. According to the inhibition rate of different concentrations, the IC50 of the compound was obtained by curve fitting.
(§4) The percentage inhibition data of the wells treated with the compound was calculated with the positive control wells (DMSO control wells) and negative control wells (no kinase added) on the plate {% inhibition rate=100-[(test compound value-negative control value)]/(Positive control value-negative control value)×100}. IC50 value was calculated by using GraphPad prism to fit the data of different concentrations and corresponding percentage inhibition rates to a 4-parameter non-linear logic formula.

TYK2 = TYK2 (Homo sapiens, UniProt P29597); assay: JAK kinase activity inhibition, TR-FRET (TYK2); type: biochemical; conditions: TR-FRET kinase assay
Protocol: as §1, §2, §3, §4

[1] = system: JAK-STAT signal pathway of U266 cells; assay: Inhibition of cellular JAK-STAT signal pathway (STAT3 phosphorylation) in U266 cells; type: cell-based, human; conditions: Homo sapiens, U-266, INF-a 1000 U/mL stimulation
Protocol: The objective of the test is to test the inhibitory activity of the compound on the cellular JAK-STAT signaling pathway.
U266 cell line was used in this experiment, by activating the JAK-STAT signaling pathway through INF-a stimulation, the inhibitory activity of the compound on its downstream STAT3 phosphorylation was detected, and the half inhibitory concentration IC50 of the compound on the JAK-STAT signaling pathway activity was obtained.
3-12 μL of U266 cell line was spread into the 384-well detection plate, and the number of cells in each well was 100-300 K, followed by addition of 2 μL of the compound solution serially diluted. The plate was incubated for 2 hours with shaking at 350 rpm at room temperature. After 2 hours, 2 μL of INF-a with a final concentration of 1000 U/mL was added. The plate was shaken at room temperature for 15 minutes. 2-5 μL (5×) LANCE Ultra Lysis Buffer 2 solution was added and the plate was shaken at room temperature for 2 hours. After 2 hours, 5 μL of LANCE Ultra Eu-labeled Anti-STAT3 Antibody (PerkinElmer) with a final concentration of 0.5 nM and LANCE Ultra ULight-labeled Anti-STAT3 Antibody (PerkinElmer) with a final concentration of 5 nM were added, and the plate was incubated overnight at room temperature. The fluorescence signal value at 665 nm of each well was measured with the microplate reader, and the inhibition rate was calculated from the fluorescence signal value. According to the inhibition rate of different concentrations, the IC50 of the compound was obtained by curve fitting.
as §4

Chain of JAK1 (P23458 whole entry): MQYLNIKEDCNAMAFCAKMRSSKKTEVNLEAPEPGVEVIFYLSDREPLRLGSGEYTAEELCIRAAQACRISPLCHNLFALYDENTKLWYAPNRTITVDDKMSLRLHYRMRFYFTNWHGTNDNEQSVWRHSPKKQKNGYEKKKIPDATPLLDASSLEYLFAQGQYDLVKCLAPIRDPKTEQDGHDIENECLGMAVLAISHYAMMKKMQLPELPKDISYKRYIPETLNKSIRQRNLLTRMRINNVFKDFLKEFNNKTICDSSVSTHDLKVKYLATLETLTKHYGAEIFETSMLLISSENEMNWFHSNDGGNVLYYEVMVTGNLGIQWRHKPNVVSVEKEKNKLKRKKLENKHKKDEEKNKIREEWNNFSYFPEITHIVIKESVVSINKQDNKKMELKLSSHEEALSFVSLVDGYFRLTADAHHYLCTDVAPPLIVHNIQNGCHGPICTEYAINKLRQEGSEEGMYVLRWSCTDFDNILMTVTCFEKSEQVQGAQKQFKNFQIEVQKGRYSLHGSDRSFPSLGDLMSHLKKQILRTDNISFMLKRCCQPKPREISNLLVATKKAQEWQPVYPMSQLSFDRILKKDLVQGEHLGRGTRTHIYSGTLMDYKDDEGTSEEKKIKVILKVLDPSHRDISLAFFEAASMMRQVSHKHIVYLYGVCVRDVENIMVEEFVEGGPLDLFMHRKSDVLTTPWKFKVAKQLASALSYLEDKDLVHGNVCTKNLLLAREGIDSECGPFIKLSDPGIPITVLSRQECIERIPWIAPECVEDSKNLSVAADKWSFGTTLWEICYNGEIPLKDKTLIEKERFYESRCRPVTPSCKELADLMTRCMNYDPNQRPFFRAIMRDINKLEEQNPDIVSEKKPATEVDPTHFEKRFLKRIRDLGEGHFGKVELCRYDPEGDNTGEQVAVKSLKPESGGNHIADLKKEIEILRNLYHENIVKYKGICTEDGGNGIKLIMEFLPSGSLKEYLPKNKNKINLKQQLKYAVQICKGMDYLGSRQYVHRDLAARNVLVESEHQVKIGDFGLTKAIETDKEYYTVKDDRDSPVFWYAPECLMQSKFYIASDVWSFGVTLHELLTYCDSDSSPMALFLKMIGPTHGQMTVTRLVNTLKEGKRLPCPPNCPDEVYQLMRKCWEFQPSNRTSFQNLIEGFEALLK
Chain of TYK2 (P29597 whole entry): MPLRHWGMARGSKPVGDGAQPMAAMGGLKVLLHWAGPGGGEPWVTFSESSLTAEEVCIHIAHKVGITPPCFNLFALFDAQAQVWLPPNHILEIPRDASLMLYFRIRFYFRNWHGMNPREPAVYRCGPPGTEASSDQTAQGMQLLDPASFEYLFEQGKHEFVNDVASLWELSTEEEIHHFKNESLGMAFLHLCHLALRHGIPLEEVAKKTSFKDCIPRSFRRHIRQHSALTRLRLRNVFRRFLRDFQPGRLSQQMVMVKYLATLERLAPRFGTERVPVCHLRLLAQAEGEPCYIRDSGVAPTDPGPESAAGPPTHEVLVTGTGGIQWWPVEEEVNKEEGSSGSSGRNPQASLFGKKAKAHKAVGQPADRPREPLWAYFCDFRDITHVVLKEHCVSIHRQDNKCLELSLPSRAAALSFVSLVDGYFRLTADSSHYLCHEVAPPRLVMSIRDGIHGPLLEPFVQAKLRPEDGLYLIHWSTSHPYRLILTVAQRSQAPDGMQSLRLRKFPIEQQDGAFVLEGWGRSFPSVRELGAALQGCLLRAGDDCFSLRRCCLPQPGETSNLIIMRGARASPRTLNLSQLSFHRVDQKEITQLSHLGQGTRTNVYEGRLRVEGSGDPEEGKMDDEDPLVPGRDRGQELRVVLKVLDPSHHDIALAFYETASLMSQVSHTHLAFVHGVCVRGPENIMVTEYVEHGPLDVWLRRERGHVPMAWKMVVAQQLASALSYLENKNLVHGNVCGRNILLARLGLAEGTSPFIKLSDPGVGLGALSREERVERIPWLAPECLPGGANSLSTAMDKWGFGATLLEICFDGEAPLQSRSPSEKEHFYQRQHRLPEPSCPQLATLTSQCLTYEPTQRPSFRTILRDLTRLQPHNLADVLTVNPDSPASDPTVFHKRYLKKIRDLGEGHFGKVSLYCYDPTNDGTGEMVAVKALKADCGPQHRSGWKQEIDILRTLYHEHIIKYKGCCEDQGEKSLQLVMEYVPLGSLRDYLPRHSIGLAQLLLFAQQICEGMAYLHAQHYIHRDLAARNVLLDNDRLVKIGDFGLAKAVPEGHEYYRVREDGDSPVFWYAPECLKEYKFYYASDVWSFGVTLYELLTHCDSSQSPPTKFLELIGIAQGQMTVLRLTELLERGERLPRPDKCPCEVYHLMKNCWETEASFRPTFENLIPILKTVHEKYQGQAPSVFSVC

| SMILES | IC50 (JAK1) [nM] | IC50 (TYK2) [nM] | IC50 [1] [nM] |
| --- | --- | --- | --- |
| O=C(C(F)F)N1[C@@H]2CC[C@H]1C[C@H](Nc1nc(Nc3ncc(CO)s3)cc3ncccc13)C2 [Embodiment 166, 2,2-difluoro-1-((3-exo)-3-((7-((5-(hydroxymethyl)thiazol-2-yl)amino)-1,6-diazanaphthalen-5-yl)amino)-8-azabicyclo[3.2.1]oct-8-yl)ethane-1-one] | 0.19 | 9.31 | 26.7 |
| Cc1cc(Nc2nc(N[C@@H]3C[C@@H]4CN(CCC#N)C[C@@H]4C3)nc3sccc23)n[nH]1 [Embodiment 298, 3-(cis-5-((4-((5-methyl-1H-pyrazol-3-yl)amino)thieno[2,3-d]pyrimidin-2-yl)amino)hexahydrocyclopentadieno[c]pyrrole-2(1H)-yl)propionitrile] | 0.67 | 22.8 | 1.86 |
| Cc1cc(Nc2nc(N[C@@H]3C[C@H]4CCC[C@@H](C3)N4C(=O)c3cccnc3)nc3sccc23)n[nH]1 [Embodiment 261, ((3-exo)-3-((4-((5-methyl-1H-pyrazol-3-yl)amino)thieno[2,3-d]pyrimidin-2-yl)amino)-9-azabicyclo[3.3.1]non-9-yl)(pyridin-3-yl)methanone] | 0.04 | 5.58 | 10.6 |
| Cc1cc(Nc2nc(N[C@@H]3C[C@H]4CC[C@@H](C3)N4S(=O)(=O)N3CC(C#N)C3)nc3cc(F)ccc23)n[nH]1 [Embodiment 215, 1-(((3-exo)-3-((7-fluoro-4-((5-methyl-1H-pyrazol-3-yl)amino)quinazolin-2-yl)amino)-8-azabicyclo[3.2.1]oct-8-yl)sulfonyl)azetindin-3-formonitrile] | 0.12 | 0.27 | 24.1 |
| Cc1cc(Nc2nc(N[C@@H]3C[C@H]4CCC[C@@H](C3)N4C(=O)[C@H]3COCCN3)nc3sccc23)n[nH]1 [Embodiment 250, ((3-exo)-3-((4-((5-methyl-1H-pyrazol-3-yl)amino)thieno[2,3-d]pyrimidin-2-yl)amino)-9-azabicyclo[3.3.1]non-9-yl)((R)-morpholine-3-yl)methanone] | 0.04 | 0.07 | 7.3 |
| N#CCCN1[C@@H]2CCC[C@H]1C[C@H](Nc1nc(Nc3ncc(CO)s3)cc3ncccc13)C2 [Embodiment 163, 3-((3-exo)-3-((7-((5-(hydroxymethyl)thiazol-2-yl)amino)-1,6-diazanaphthalen-5-yl)amino)-9-azabicyclo[3.3.1]non-9-yl)propionitrile] | 0.45 | 24.4 | 52.6 |
| Cc1cc(Nc2nc(O[C@@H]3C[C@H]4CC[C@@H](C3)N4CCC#N)nc3sccc23)n[nH]1 [Embodiment 279, 3-((3-exo)-3-((4-((5-methyl-1H-pyrazol-3-yl)amino)thieno[2,3-d]pyrimidin-2-yl)oxo)-8-azabicyclo[3.2.1]oct-8-yl)propionitrile] | 0.24 | 0.66 | 2.2 |
| Cc1cc(Nc2nc(N[C@@H]3C[C@H]4CCC[C@@H](C3)N4S(=O)(=O)c3cccnc3)nc3sccc23)n[nH]1 [Embodiment 268] | 0.21 | 0.19 | 42.9 |
| Cc1cc(Nc2nc(N[C@@H]3C[C@H]4CCC[C@@H](C3)N4Cc3ccccn3)nc3sccc23)n[nH]1 [Embodiment 271] | 0.05 | 4.91 | 1.49 |
| Cc1cc(Nc2nc(N[C@@H]3C[C@H]4CCC[C@@H](C3)N4C(=O)CN3CCN(C)CC3)nc3sccc23)n[nH]1 [Embodiment 258, 1-((3-exo)-3-((4-((5-methyl-1H-pyrazol-3-yl)amino)thieno[2,3-d]pyrimidin-2-yl)amino)-9-azabicyclo[3.3.1]non-9-yl)-2-(4-methylpiperazin-1-yl)ethane-1-one] | 0.27 | 0.61 | 32.7 |
| Cc1cc(Nc2cc3ncccc3c(N(C)[C@@H]3C[C@H]4CC[C@@H](C3)N4CCC#N)n2)n[nH]1 [Embodiment 111, 3-((3-exo)-3-(methyl(7-((5-methyl-1H-pyrazol-3-yl)amino)-1,6-diazanaphthalen-5-yl)amino)-8-azabicyclo[3.2.1]oct-8-yl)propionitrile] | 5.69 | 1.63 | 2.93 |
| CN(c1nc(Nc2cc(CO)[nH]n2)c2ccc(Cl)cc2n1)[C@@H]1C[C@H]2CCC[C@@H](C1)N2CCC#N [Embodiment 235, 3-((3-exo)-3-((7-chloro-4-((5-(hydroxymethyl)-1H-pyrazol-3-yl)amino)quinazolin-2-yl)(methyl)amino)-9-azabicyclo[3.3.1]non-9-yl)propionitrile] | 3.33 | 2.71 | 44.4 |
| Cc1cc(Nc2nc(N[C@@H]3C[C@H]4CC[C@@H](C3)N4S(=O)(=O)N3CC(C#N)C3)nc3ccsc23)n[nH]1 [Embodiment 285] | 0.17 | 0.51 | 42 |
| Cc1cc(Nc2nc(N[C@@H]3C[C@H]4CCC[C@@H](C3)N4C(=O)c3cn(C)cn3)nc3sccc23)n[nH]1 [Embodiment 264, (1-methyl-1H-imidazol-4-yl) ((3-exo)-3-((4-((5-methyl-1H-pyrazol-3-yl)amino)thieno[2,3-d]pyrimidin-2-yl)amino)-9-azabicyclo[3.3.1]non-9-yl)methanone] | 0.19 | 0.48 | 33.5 |
| OCc1cnc(Nc2cc3ncccc3c(N[C@@H]3C[C@H]4CC[C@@H](C3)N4CCF)n2)s1 [Embodiment 167, (2-((5-(((3-exo)-8-(2-fluoroethyl)-8-azabicyclo[3.2.1]oct-3-yl)amino)-1,6-diazanaphthalen-7-yl)amino)thiazol-5-yl)methanol] | 2.55 | 7.28 | 14.8 |
| CCc1cc(Nc2cc3ncccc3c(N[C@@H]3C[C@H]4CC[C@@H](C3)N4CCC#N)n2)n[nH]1 [Embodiment 11, 3-((3-exo)-3-((7-((5-ethyl-1H-pyrazol-3-yl)amino)-1,6-diazanaphthalen-5-yl)amino)-8-azabicyclo[3.2.1]oct-8-yl)propionitrile] | 0.3 | 9.13 | 4.77 |
| Cc1cc(Nc2nc(N[C@@H]3C[C@H]4CCC[C@@H](C3)N4CC(=O)N(C)C)nc3sccc23)n[nH]1 [Embodiment 270, N,N-dimethyl-2-((3-exo)-3-((4-((5-methyl-1H-pyrazol-3-yl)amino)thieno[2,3-d]pyrimidin-2-yl)amino)-9-azabicyclo[3.3.1]non-9-yl)acetamide] | 1.22 | 5.78 | 14.3 |
| Cc1cc(Nc2nc(N[C@@H]3C[C@H]4CC[C@@H](C3)N4S(=O)(=O)N3CC(C#N)C3)nc3cccnc23)n[nH]1 [Embodiment 220, 1-(((3-exo)-3-((4-((5-methyl-1H-pyrazol-3-yl)amino)pyrido[3,2-d]pyrimidin-2-yl)amino)-8-azabicyclo[3.2.1]oct-8-yl)sulfonyl)azetindin-3-formonitrile] | 0.67 | 4.27 | 10.2 |
| Cc1cc(Nc2nc(NC3CCN(CCC#N)CC3)nc3ccccc23)n[nH]1 [Embodiment 310, 3-(4-((4-((5-methyl-1H-pyrazol-3-yl)amino)quinazolin-2-yl)amino)piperidin-1-yl)propionitrile] | 8.67 | 0.26 | 5.41 |
| Cc1cc(Nc2nc(N[C@@H]3C[C@H]4CC[C@@H](C3)N4CCC#N)nc3cccnc23)n[nH]1 [Embodiment 174, 3-((3-exo)-3-((4-((5-methyl-1H-pyrazol-3-yl)amino)pyrido[3,2-d]pyrimidin-2-yl)amino)-8-azabicyclo[3.2.1]oct-8-yl)propionitrile] | 2.73 | 1.88 | 0.42 |
